Key:
Type in all cases: in vivo
[1] = test system: kochia (Kochia scoparia); test: Test A preemergence kochia; conditions: 0 to 100 scale, 0 no effect, 100 complete control
Source text: (§1) Seeds of plant species selected from barnyardgrass (Echinochloa crus-galli), kochia (Kochia scoparia), ragweed (common ragweed, Ambrosia elatior), ryegrass, Italian (Italian ryegrass, Lolium multiflorum), crabgrass, large (large crabgrass, Digitaria sanguinalis), foxtail, giant (giant foxtail, Setaria faberii), morningglory (Ipomoea spp.), pigweed (Amaranthus retroflexus), velvetleaf (Abutilon theophrasti), wheat (Triticum aestivum), and corn (Zea mays) were planted into a blend of loam soil and sand and treated preemergence with a directed soil spray using test chemicals formulated in a non-phytotoxic solvent mixture which included a surfactant.
(§2) At the same time, plants selected from these crop and weed species and also blackgrass (Alopecurus myosuroides), and galium (catchweed bedstraw, Galium aparine) were planted in pots containing the same blend of loam soil and sand and treated with postemergence applications of test chemicals formulated in the same manner. Plants ranged in height from 2 to 10 cm and were in the one- to two-leaf stage for the postemergence treatment. Treated plants and untreated controls were maintained in a greenhouse for approximately 10 d, after which time all treated plants were compared to untreated controls and visually evaluated for injury. Plant response ratings, summarized in Table A, are based on a 0 to 100 scale where 0 is no effect and 100 is complete control. A dash (-) response means no test result.

[2] = test system: foxtail, giant (giant foxtail, Setaria faberii); test: Test A postemergence foxtail, giant; conditions: 0 to 100 scale, 0 is no effect, 100 is complete control
Source text: as §1, §2

[3] = test system: pigweed (Amaranthus retroflexus); test: Test A preemergence pigweed; conditions: 0 to 100 scale, 0 no effect, 100 complete control
Source text: as §1, §2

[4] = test system: blackgrass (Alopecurus myosuroides); test: Test A postemergence blackgrass; conditions: 0 to 100 scale, 0 is no effect, 100 is complete control
Source text: as §1, §2

[5] = test system: ryegrass, Italian (Italian ryegrass, Lolium multiflorum); test: Test A postemergence ryegrass, Italian; conditions: 0 to 100 scale, 0 is no effect, 100 is complete control
Source text: as §1, §2

[6] = test system: wheat (Triticum aestivum); test: Test A postemergence wheat; conditions: 0 to 100 scale, 0 is no effect, 100 is complete control
Source text: as §1, §2

[7] = test system: foxtail, giant (giant foxtail, Setaria faberii); test: Test A preemergence foxtail, giant; conditions: 0 to 100 scale, 0 no effect, 100 complete control
Source text: as §1, §2

[8] = test system: barnyardgrass (Echinochloa crus-galli); test: Test A preemergence barnyardgrass; conditions: 0 to 100 scale, 0 no effect, 100 complete control
Source text: as §1, §2

[9] = test system: galium (catchweed bedstraw, Galium aparine); test: Test A postemergence galium; conditions: 0 to 100 scale, 0 is no effect, 100 is complete control
Source text: as §1, §2

[10] = test system: pigweed (Amaranthus retroflexus); test: Test A postemergence pigweed; conditions: 0 to 100 scale, 0 is no effect, 100 is complete control
Source text: as §1, §2

[11] = test system: sedge, umbrella (small-flower umbrella sedge, Cyperus difformis); test: Test B flooded paddy test sedge, umbrella; conditions: Table B, Flood, scale 0 to 100
Procedure: (§3) Plant species in the flooded paddy test selected from rice (Oryza sativa), sedge, umbrella (small-flower umbrella sedge, Cyperus difformis), ducksalad (Heteranthera limosa), and barnyardgrass (Echinochloa crus-galli) were grown to the 2-leaf stage for testing. At the time of treatment, test pots were flooded to 3 cm above the soil surface, treated by application of test compounds directly to the paddy water, and then maintained at that water depth for the duration of the test. Treated plants and controls were maintained in a greenhouse for 13 to 15 d, after which time all species were compared to controls and visually evaluated. […] A dash (-) response means no test result.

[12] = test system: barnyardgrass (Echinochloa crus-galli); test: Test B flooded paddy test barnyardgrass; conditions: Table B, Flood, scale 0 to 100
Procedure: as §3

[13] = test system: barnyardgrass (Echinochloa crus-galli); test: Test A postemergence barnyardgrass; conditions: 0 to 100 scale, 0 is no effect, 100 is complete control
Source text: as §1, §2

[14] = test system: kochia (Kochia scoparia); test: Test A postemergence kochia; conditions: 0 to 100 scale, 0 is no effect, 100 is complete control
Source text: as §1, §2

[15] = test system: corn (Zea mays); test: Test A postemergence corn; conditions: 0 to 100 scale, 0 is no effect, 100 is complete control
Source text: as §1, §2

[16] = test system: ragweed (common ragweed, Ambrosia elatior); test: Test A postemergence ragweed; conditions: 0 to 100 scale, 0 is no effect, 100 is complete control
Source text: as §1, §2

[17] = test system: ragweed (common ragweed, Ambrosia elatior); test: Test A preemergence ragweed; conditions: 0 to 100 scale, 0 no effect, 100 complete control
Source text: as §1, §2

[18] = test system: ducksalad (Heteranthera limosa); test: Test B flooded paddy test ducksalad; conditions: Table B, Flood, scale 0 to 100
Procedure: as §3

[19] = test system: rice (Oryza sativa); test: Test B flooded paddy test rice; conditions: Table B, Flood, scale 0 to 100
Procedure: as §3

[20] = test system: ryegrass, Italian (Italian ryegrass, Lolium multiflorum); test: Test A preemergence ryegrass, Italian; conditions: 0 to 100 scale, 0 no effect, 100 complete control
Source text: as §1, §2

Structure (SMILES) | Kochia plant response rating ([1]; 125 g ai/ha) | Kochia plant response rating ([1]; 500 g ai/ha) | Plant response rating, Foxtail, Giant ([2]; 125 g ai/ha) | Plant response rating, Foxtail, Giant ([2]; 500 g ai/ha) | Pigweed plant response rating ([3]; 125 g ai/ha) | Pigweed plant response rating ([3]; 500 g ai/ha) | Plant response rating, Blackgrass ([4]; 125 g ai/ha) | Plant response rating, Blackgrass ([4]; 500 g ai/ha) | Plant response rating, Ryegrass, Italian ([5]; 125 g ai/ha) | Plant response rating, Ryegrass, Italian ([5]; 500 g ai/ha) | Plant response rating, Wheat ([6]; 125 g ai/ha) | Plant response rating, Wheat ([6]; 500 g ai/ha) | Foxtail, Giant plant response rating ([7]; 125 g ai/ha) | Foxtail, Giant plant response rating ([7]; 500 g ai/ha) | Barnyardgrass plant response rating ([8]; 125 g ai/ha) | Barnyardgrass plant response rating ([8]; 500 g ai/ha) | Plant response rating, Galium ([9]; 125 g ai/ha) | Plant response rating, Galium ([9]; 500 g ai/ha) | Plant response rating, Pigweed ([10]; 125 g ai/ha) | Plant response rating, Pigweed ([10]; 500 g ai/ha) | also measured
O=C1NCCC(c2cccc(C(F)(F)F)c2)C1C(=O)Nc1cccc(Cl)c1Cl (racemic) [Compound 31] | 0 | 0 | 70 | 80 | 0 | 0 | 20 | 40 | 0 | 0 | 0 | 0 | 70 | 90 | 70 | 80 | 0 | 0 | 0 | 0 | Plant response rating ([11]; 500 g ai/ha): 0; Plant response rating ([12]; 500 g ai/ha): 95; Plant response rating, Barnyardgrass ([13]; 125 g ai/ha): 60; Plant response rating, Barnyardgrass ([13]; 500 g ai/ha): 80; Plant response rating, Kochia ([14]; 125 g ai/ha): 0; Plant response rating, Kochia ([14]; 500 g ai/ha): 0; Plant response rating, Corn ([15]; 125 g ai/ha): 0; Plant response rating, Corn ([15]; 500 g ai/ha): 0; Plant response rating, Ragweed ([16]; 125 g ai/ha): 0; Plant response rating, Ragweed ([16]; 500 g ai/ha): 0; Ragweed plant response rating ([17]; 125 g ai/ha): 0; Ragweed plant response rating ([17]; 500 g ai/ha): 0; Plant response rating ([18]; 500 g ai/ha): 0; Plant response rating ([19]; 500 g ai/ha): 10; Ryegrass, Italian plant response rating ([20]; 125 g ai/ha): 0; Ryegrass, Italian plant response rating ([20]; 500 g ai/ha): 0
CS(=O)(=O)c1ccccc1NC(=O)C1C(=O)NCCC1c1cccc(C(F)(F)F)c1 (racemic) [Compound 32] | 0 | 20 | 40 | 40 | 0 | 0 | 0 | 0 | 0 | 20 | 0 | 0 | 70 | 90 | 20 | 90 | 0 | 0 | 0 | 0 | Plant response rating ([11]; 500 g ai/ha): 0; Plant response rating ([12]; 500 g ai/ha): 0; Plant response rating, Barnyardgrass ([13]; 125 g ai/ha): 60; Plant response rating, Barnyardgrass ([13]; 500 g ai/ha): 70; Plant response rating, Kochia ([14]; 125 g ai/ha): 0; Plant response rating, Kochia ([14]; 500 g ai/ha): 20; Plant response rating, Corn ([15]; 125 g ai/ha): 0; Plant response rating, Corn ([15]; 500 g ai/ha): 30; Plant response rating, Ragweed ([16]; 125 g ai/ha): 0; Plant response rating, Ragweed ([16]; 500 g ai/ha): 0; Ragweed plant response rating ([17]; 125 g ai/ha): 0; Ragweed plant response rating ([17]; 500 g ai/ha): 0; Plant response rating ([18]; 500 g ai/ha): 40; Plant response rating ([19]; 500 g ai/ha): 0; Ryegrass, Italian plant response rating ([20]; 125 g ai/ha): 0; Ryegrass, Italian plant response rating ([20]; 500 g ai/ha): 30
O=C1NCCC(c2cccc(Cl)c2)C1C(=O)Nc1ccccc1C(F)(F)F (racemic) [Compound 33] | 0 | 30 | 50 | 90 | 0 | 0 | 0 | 0 | 0 | 0 | 0 | 0 | 70 | 90 | 50 | 90 | 0 | 0 | 0 | 0 | Plant response rating ([11]; 500 g ai/ha): 0; Plant response rating ([12]; 500 g ai/ha): 20; Plant response rating, Barnyardgrass ([13]; 125 g ai/ha): 60; Plant response rating, Barnyardgrass ([13]; 500 g ai/ha): 90; Plant response rating, Kochia ([14]; 125 g ai/ha): 0; Plant response rating, Kochia ([14]; 500 g ai/ha): 0; Plant response rating, Corn ([15]; 125 g ai/ha): 0; Plant response rating, Corn ([15]; 500 g ai/ha): 0; Plant response rating, Ragweed ([16]; 125 g ai/ha): 0; Plant response rating, Ragweed ([16]; 500 g ai/ha): 0; Ragweed plant response rating ([17]; 125 g ai/ha): 0; Ragweed plant response rating ([17]; 500 g ai/ha): 0; Plant response rating ([18]; 500 g ai/ha): 80; Plant response rating ([19]; 500 g ai/ha): 0; Ryegrass, Italian plant response rating ([20]; 125 g ai/ha): 0; Ryegrass, Italian plant response rating ([20]; 500 g ai/ha): 0
O=C1NCCC(c2cccc(Cl)c2)C1C(=O)Nc1ccccc1F (racemic) [Compound 34] | 0 | 30 | 40 | 80 | 0 | 30 | 0 | 0 | 0 | 0 | 0 | 0 | 50 | 90 | 40 | 90 | 0 | 0 | 0 | 0 | Plant response rating ([11]; 500 g ai/ha): 0; Plant response rating ([12]; 500 g ai/ha): 0; Plant response rating, Barnyardgrass ([13]; 125 g ai/ha): 40; Plant response rating, Barnyardgrass ([13]; 500 g ai/ha): 90; Plant response rating, Kochia ([14]; 125 g ai/ha): 0; Plant response rating, Kochia ([14]; 500 g ai/ha): 0; Plant response rating, Corn ([15]; 125 g ai/ha): 0; Plant response rating, Corn ([15]; 500 g ai/ha): 0; Plant response rating, Ragweed ([16]; 125 g ai/ha): 0; Plant response rating, Ragweed ([16]; 500 g ai/ha): 0; Ragweed plant response rating ([17]; 125 g ai/ha): 0; Ragweed plant response rating ([17]; 500 g ai/ha): 30; Plant response rating ([18]; 500 g ai/ha): 40; Plant response rating ([19]; 500 g ai/ha): 0; Ryegrass, Italian plant response rating ([20]; 125 g ai/ha): 0; Ryegrass, Italian plant response rating ([20]; 500 g ai/ha): 0
O=C1NCCC(c2cccc(OC(F)(F)F)c2)C1C(=O)Nc1ccccc1F (racemic) [Compound 37] | 0 | 0 | 20 | 70 | 0 | 0 | 0 | 0 | 0 | 20 | 0 | 0 | 70 | 90 | 40 | 70 | 0 | 0 | 0 | 0 | Plant response rating ([11]; 250 g ai/ha): 0; Plant response rating ([12]; 250 g ai/ha): 35; Plant response rating, Barnyardgrass ([13]; 125 g ai/ha): 60; Plant response rating, Barnyardgrass ([13]; 500 g ai/ha): 80; Plant response rating, Kochia ([14]; 125 g ai/ha): 0; Plant response rating, Kochia ([14]; 500 g ai/ha): 0; Plant response rating, Corn ([15]; 125 g ai/ha): 0; Plant response rating, Corn ([15]; 500 g ai/ha): 0; Plant response rating, Ragweed ([16]; 125 g ai/ha): 0; Plant response rating, Ragweed ([16]; 500 g ai/ha): 0; Ragweed plant response rating ([17]; 125 g ai/ha): 0; Ragweed plant response rating ([17]; 500 g ai/ha): 0; Plant response rating ([18]; 250 g ai/ha): 90; Plant response rating ([19]; 250 g ai/ha): 0; Ryegrass, Italian plant response rating ([20]; 125 g ai/ha): 0; Ryegrass, Italian plant response rating ([20]; 500 g ai/ha): 0

Source: patent US9944602B2, “Piperidinone herbicides” (E. I. DU PONT DE NEMOURS AND COMPANY, priority 2014, dated 2018)
